Measured values from ChEMBL document CHEMBL3044674, “Design and synthesis of positional isomers of 1-alkyl-2-trifluoromethyl-5 or 6-substituted benzimidazoles and their antimicrobial activity” (2013).
Converted amounts (≈) assume the structure as drawn.

Key:
Format in all cases: functional
Saccharomyces cerevisiae = experiment: Antifungal activity against Saccharomyces cerevisiae MTCC 36 after 24 hr by paper disk method; settings: MTCC 36, 24 h
Rhizopus arrhizus = experiment: Antifungal activity against Rhizopus oryzae MTCC 262 after 24 hr by paper disk method; settings: MTCC 262, 24 h
Aspergillus niger = experiment: Antifungal activity against Aspergillus niger MTCC 1344 after 24 hr by paper disk method; settings: MTCC 1344, 24 h
Candida albicans = experiment: Antifungal activity against Candida albicans MTCC 227 after 24 hr by paper disk method; settings: MTCC 227, 24 h
Pseudomonas aeruginosa = experiment: Antibacterial activity against Pseudomonas aeruginosa NCIM 2957 after 18 to 20 hr by plate method
Escherichia coli = experiment: Antibacterial activity against Escherichia coli NCIM 2068 after 18 to 20 hr by plate method
Staphylococcus aureus = experiment: Antibacterial activity against Staphylococcus aureus NCIM 2079 after 18 to 20 hr by plate method
Bacillus subtilis = experiment: Antibacterial activity against Bacillus subtilis NCIM 2921 after 18 to 20 hr by plate method

| SMILES | MIC (Saccharomyces cerevisiae) | MIC (Rhizopus arrhizus) | MIC (Aspergillus niger) | MIC (Candida albicans) | Activity (Pseudomonas aeruginosa) | MIC (Pseudomonas aeruginosa) | Activity (Escherichia coli) | MIC (Escherichia coli) | Activity (Staphylococcus aureus) | MIC (Staphylococcus aureus) | Activity (Bacillus subtilis) | MIC (Bacillus subtilis) |
| --- | --- | --- | --- | --- | --- | --- | --- | --- | --- | --- | --- | --- |
| C#CCn1c(C(F)(F)F)nc2cc([N+](=O)[O-])ccc21 | 750 µg/mL (≈ 2790 µM) | 700 µg/mL (≈ 2600 µM) | 600 µg/mL (≈ 2230 µM) | 700 µg/mL (≈ 2600 µM) | – | – | – | – | – | – | – | – |
| CCOC(=O)Cn1c(C(F)(F)F)nc2ccc(C(=O)c3ccccc3)cc21 | 500 µg/mL (≈ 1330 µM) | 400 µg/mL (≈ 1060 µM) | 700 µg/mL (≈ 1860 µM) | 400 µg/mL (≈ 1060 µM) | – | – | – | – | – | – | – | – |
| CCn1c(C(F)(F)F)nc2cc([N+](=O)[O-])ccc21 | 850 µg/mL (≈ 3280 µM) | 700 µg/mL (≈ 2700 µM) | 750 µg/mL (≈ 2890 µM) | 700 µg/mL (≈ 2700 µM) | – | – | – | – | – | – | – | – |
| CCOC(=O)Cn1c(C(F)(F)C(F)(F)F)nc2cc(C(=O)c3ccccc3)ccc21 | 800 µg/mL (≈ 1880 µM) | 800 µg/mL (≈ 1880 µM) | 1000 µg/mL (≈ 2350 µM) | 700 µg/mL (≈ 1640 µM) | Dose-dependent effect | 700 µg/mL (≈ 1640 µM) | Dose-dependent effect | 650 µg/mL (≈ 1520 µM) | Dose-dependent effect | 700 µg/mL (≈ 1640 µM) | Dose-dependent effect | 900 µg/mL (≈ 2110 µM) |
| CCn1c(C(F)(F)F)nc2ccc([N+](=O)[O-])cc21 | 800 µg/mL (≈ 3090 µM) | 850 µg/mL (≈ 3280 µM) | 800 µg/mL (≈ 3090 µM) | 900 µg/mL (≈ 3470 µM) | – | – | – | – | – | – | – | – |
| O=[N+]([O-])c1ccc2nc(C(F)(F)C(F)(F)F)n(CCCCCl)c2c1 | 750 µg/mL (≈ 2020 µM) | 800 µg/mL (≈ 2150 µM) | 700 µg/mL (≈ 1880 µM) | 800 µg/mL (≈ 2150 µM) | – | – | – | – | – | – | – | – |
| CCOC(=O)Cn1c(C(F)(F)C(F)(F)F)nc2ccc(C(=O)c3ccccc3)cc21 | 700 µg/mL (≈ 1640 µM) | 850 µg/mL (≈ 1990 µM) | 900 µg/mL (≈ 2110 µM) | 700 µg/mL (≈ 1640 µM) | Dose-dependent effect | 900 µg/mL (≈ 2110 µM) | Dose-dependent effect | 600 µg/mL (≈ 1410 µM) | Dose-dependent effect | 900 µg/mL (≈ 2110 µM) | Dose-dependent effect | 850 µg/mL (≈ 1990 µM) |
| CCOC(=O)Cn1c(C(F)(F)F)nc2cc(C(=O)c3ccccc3)ccc21 | 600 µg/mL (≈ 1590 µM) | 450 µg/mL (≈ 1200 µM) | 800 µg/mL (≈ 2130 µM) | 500 µg/mL (≈ 1330 µM) | – | – | – | – | – | – | – | – |
| CCOC(=O)Cn1c(C(F)(F)F)nc2ccc([N+](=O)[O-])cc21 | 600 µg/mL (≈ 1890 µM) | 700 µg/mL (≈ 2210 µM) | 500 µg/mL (≈ 1580 µM) | 450 µg/mL (≈ 1420 µM) | Dose-dependent effect | 850 µg/mL (≈ 2680 µM) | Dose-dependent effect | 800 µg/mL (≈ 2520 µM) | Dose-dependent effect | 900 µg/mL (≈ 2840 µM) | Dose-dependent effect | 950 µg/mL (≈ 2990 µM) |
| N#CCn1c(C(F)(F)F)nc2ccc([N+](=O)[O-])cc21 | 900 µg/mL (≈ 3330 µM) | 800 µg/mL (≈ 2960 µM) | – | – | – | – | – | – | – | – | – | – |
| O=[N+]([O-])c1ccc2c(c1)nc(C(F)(F)C(F)(F)F)n2CCCCCl | 750 µg/mL (≈ 2020 µM) | 700 µg/mL (≈ 1880 µM) | 650 µg/mL (≈ 1750 µM) | 700 µg/mL (≈ 1880 µM) | – | – | – | – | – | – | – | – |
| CCOC(=O)Cn1c(C(F)(F)C(F)(F)F)nc2cc([N+](=O)[O-])ccc21 | 900 µg/mL (≈ 2450 µM) | 950 µg/mL (≈ 2590 µM) | 850 µg/mL (≈ 2310 µM) | 800 µg/mL (≈ 2180 µM) | Dose-dependent effect | 800 µg/mL (≈ 2180 µM) | Dose-dependent effect | 900 µg/mL (≈ 2450 µM) | Dose-dependent effect | – | Dose-dependent effect | – |
| O=[N+]([O-])c1ccc2nc(C(F)(F)F)n(CCCCCl)c2c1 | 700 µg/mL (≈ 2180 µM) | 400 µg/mL (≈ 1240 µM) | 650 µg/mL (≈ 2020 µM) | 600 µg/mL (≈ 1870 µM) | Dose-dependent effect | – | Dose-dependent effect | – | Dose-dependent effect | 800 µg/mL (≈ 2490 µM) | Dose-dependent effect | 700 µg/mL (≈ 2180 µM) |
| O=[N+]([O-])c1ccc2c(c1)nc(C(F)(F)F)n2CCCCl | 400 µg/mL (≈ 1300 µM) | 200 µg/mL (≈ 650 µM) | 300 µg/mL (≈ 975 µM) | 300 µg/mL (≈ 975 µM) | Dose-dependent effect | 400 µg/mL (≈ 1300 µM) | Dose-dependent effect | 200 µg/mL (≈ 650 µM) | Dose-dependent effect | 300 µg/mL (≈ 975 µM) | Dose-dependent effect | 350 µg/mL (≈ 1140 µM) |
| O=[N+]([O-])c1ccc2nc(C(F)(F)F)n(CCCCl)c2c1 | 500 µg/mL (≈ 1630 µM) | 300 µg/mL (≈ 975 µM) | 350 µg/mL (≈ 1140 µM) | 400 µg/mL (≈ 1300 µM) | Dose-dependent effect | 450 µg/mL (≈ 1460 µM) | Dose-dependent effect | 400 µg/mL (≈ 1300 µM) | Dose-dependent effect | 350 µg/mL (≈ 1140 µM) | Dose-dependent effect | 300 µg/mL (≈ 975 µM) |
| CCOC(=O)Cn1c(C(F)(F)C(F)(F)F)nc2ccc([N+](=O)[O-])cc21 | 900 µg/mL (≈ 2450 µM) | – | 800 µg/mL (≈ 2180 µM) | 900 µg/mL (≈ 2450 µM) | Dose-dependent effect | – | Dose-dependent effect | – | Dose-dependent effect | 800 µg/mL (≈ 2180 µM) | Dose-dependent effect | – |
| C#CCn1c(C(F)(F)F)nc2ccc([N+](=O)[O-])cc21 | 700 µg/mL (≈ 2600 µM) | 700 µg/mL (≈ 2600 µM) | 650 µg/mL (≈ 2410 µM) | 600 µg/mL (≈ 2230 µM) | – | – | – | – | – | – | – | – |
| O=[N+]([O-])c1ccc2c(c1)nc(C(F)(F)F)n2CCCCCl | 800 µg/mL (≈ 2490 µM) | 500 µg/mL (≈ 1550 µM) | 450 µg/mL (≈ 1400 µM) | 500 µg/mL (≈ 1550 µM) | Dose-dependent effect | 800 µg/mL (≈ 2490 µM) | Dose-dependent effect | 600 µg/mL (≈ 1870 µM) | Dose-dependent effect | 800 µg/mL (≈ 2490 µM) | Dose-dependent effect | 750 µg/mL (≈ 2330 µM) |
| CCOC(=O)Cn1c(C(F)(F)F)nc2cc([N+](=O)[O-])ccc21 | 600 µg/mL (≈ 1890 µM) | 600 µg/mL (≈ 1890 µM) | 550 µg/mL (≈ 1730 µM) | 400 µg/mL (≈ 1260 µM) | Dose-dependent effect | 900 µg/mL (≈ 2840 µM) | Dose-dependent effect | 700 µg/mL (≈ 2210 µM) | Dose-dependent effect | 800 µg/mL (≈ 2520 µM) | Dose-dependent effect | 800 µg/mL (≈ 2520 µM) |
